Laboratory results: the NIST ThermoML archive (doi:10.1016/j.jct.2016.08.002)

Assays:
[1] = for vapor or sublimation pressure: Transpiration method; for Normal melting temperature: DTA
[2] = Molar enthalpy of transition or fusion; details: Crystal; DSC

NC(=O)c1cccnc1 [3-pyridinecarboxamide]
[1], Crystal
Details	vapor or sublimation pressure [kPa]
353.2 K	0.00036
358.3 K	0.0006
363.4 K	0.00104
363.5 K	0.00105
370.6 K	0.00207
378.6 K	0.00436
383.8 K	0.0069
388.8 K	0.01096
394.9 K	0.01844
398.9 K	0.02467

Details	Normal melting temperature [°C]
[1], Crystal	130.1

Details	Molar enthalpy of transition or fusion [kcal/mol]
[2]	5.71

NC(=O)c1ccccn1 [2-pyridinecarboxamide]
[1]
Details	vapor or sublimation pressure [kPa]
343 K, Crystal	0.0079
348 K, Crystal	0.0125
353.1 K, Crystal	0.0192
353.2 K, Crystal	0.0194
358.2 K, Crystal	0.0302
363.3 K, Crystal	0.0459
368.3 K, Crystal	0.0687
373.3 K, Crystal	0.1028
385.4 K, Liquid	0.2394
390.4 K, Liquid	0.3199
395.5 K, Liquid	0.416
400.6 K, Liquid	0.5427
405.6 K, Liquid	0.7049
410.7 K, Liquid	0.9324
415.8 K, Liquid	1.202

Details	Normal melting temperature [°C]
[1], Crystal	106.4

Details	Molar enthalpy of transition or fusion [kcal/mol]
[2]	4.59

NC(=O)c1ccncc1 [4-pyridinecarboxamide]
[1], Crystal
Details	vapor or sublimation pressure [kPa]
358.2 K	0.00043
363.3 K	0.00072
368.4 K	0.00117
373.4 K	0.0019
373.5 K	0.00191
378.5 K	0.00296
383.7 K	0.00472
388.7 K	0.00724
393.8 K	0.01115
398.8 K	0.01672
404 K	0.02482
409 K	0.03719

Details	Normal melting temperature [°C]
[1], Crystal	155.2

Details	Molar enthalpy of transition or fusion [kcal/mol]
[2]	5.52
